Measurements taken from patent US20230106943A1, “ENGINEERED ANTIMICROBIAL PEPTIDES AND USAGE THEREOF” (Peptilogics, Inc., priority 2021, published 2023).
Several values for one entry are separate records, joined by “and”; a condition that tells them apart may be missing. Equal values may be shown once. Read-outs that look alike come from different tables or passages of the source. No end group written: not given here.

What was measured:
Type in all cases: physicochemical
[1] = Stability of solid SEQ ID NO: 1 stored at −20° C. (HPLC area percent)
Method: A solid form of SEQ ID NO: 1 from Batch 2K18005 was dissolved and assayed. FIG. 1 depict the chromatograph of SEQ ID NO:1 at 1.0 mg/mL. The retention time at 14.38 and relative retention time at 1.00 (RTT) corresponded to SEQ ID NO: 1. The area percent of the SEQ ID NO: 1 was 99.09. […] The area percent of the impurity was 0.91. FIG. 1 depicts SEQ ID NO: 1 at time (t)=0 for a baseline prior to storage. SEQ ID NO: 1 is stable after 3 years of storage at −20° C. as a dry powder in a glass vial. FIG. 2 depicts the HPLC chromatograph after 3 years of storage SEQ ID NO: 1 in solid form at −20° C. (Batch 2K18005). The retention time at 18.03 and relative retention time at 1.00 (RTT) corresponded to SEQ ID NO: 1. The area percent of the SEQ ID NO: 1 was 97.87.

[2] = Stability of 5 mg/mL SEQ ID NO: 1 solution pH 5.0 stored at 40° C. or −20° C. (content, pH, HPLC area %); details: for level of impurity at RRT 0.98: 5 mg/mL solution pH 5.0
Method: Enhanced stability was shown of the peptide formulation after 54 days of storage at 40° C. as a liquid solution with a concentration of 5 mg/mL of SEQ ID NO: 1 at pH of 5.0. FIG. 4 depict the overlaid chromatograph of SEQ ID NO: 1 after 7 days at 40° C. (bottom graph) and after 54 days at 40° C. (top graph).

[3] = Example 6 solubility near saturation of SEQ ID NO: 1 in water at pH 5.0, 7.4, 8.1 (HPLC); details: for Purity of near saturation solution: water
Method: SEQ ID NO: 1 was dissolved to near saturation of different pH values.
396.69 mg of SEQ ID NO:1 was weighed out and dissolved in approximately 3 mL of HPLC-grade water resulting in a clear and colorless solution. The pH was 4.80 and the concentration approximately 132 mg/mL. The pH was adjusted with 0.08 M NaOH to pH=4.99. 1.1 mL was pulled, transferred to a serum vial, frozen and lyophilized. The remaining solution was adjusted to pH=7.40 with 0.08 M and 1 M NaOH. 1.45 mL was pulled, transferred to a serum vial, frozen and lyophilized. The remaining solution was adjusted to pH=8.00 with 0.08 M NaOH. This remaining solution (˜1.9 mL) was transferred to a serum vial, frozen and lyophilized. After lyophilization 200 μL HPLC-grade water was added to the solids in the serum vials and a colorless slurry was obtained. An additional 200 μL HPLC-grade water was added to obtain clear and colorless solutions. At pH=5.0 the solids went into solution without foaming; solids at pH=7.4 and pH=8 took longer to dissolve. These solutions (0.4 mL) were transferred to conical Eppendorf tubes. The vials were washed with 0.2 mL of HPLC grade water and the washes were combined with the respective solutions at the three different pH conditions. The samples were frozen and lyophilized. To the lyo cakes 50 μL increments of HPLC grade water was added. Transition from suspension or slurry to viscous solution was hard to capture. After adding 150 μL to 350 μL of HPLC grade water and intermittent mixing and storage at ambient temperature viscous and clear solutions were obtained which turned to gels when stored refrigerated at 2-8° C. All viscous solutions were centrifuged for 10 min at 12 krpm. No visible pellets were detected after centrifugation. Supernatants of the samples were analyzed for peptide concentration and purity by HPLC analysis.

[4] = Stability of 5 mg/mL SEQ ID NO: 1 solution pH 5.0 stored at 40° C. or −20° C. (content, pH, HPLC area %)
[5] = Example 4 stability of concentrated saline pH 5.0 solutions at −20° C. or 40° C./75% RH: Visual Appearance (method 25481)
Method: The peptide formulation of SEQ ID NO: 1 dissolved in a saline solution with a pH of 5.0±0.1 was tested for stability under either −20° C. or 40° C. with 75% relative humidity (RH). […]

[6] = solid form, Batch 2K18005, t=0 baseline prior to storage
[7] = solid form, after 3 years at −20° C.

Substance: RRWVRRVRRVWRRVVRVVRRWVRR-NH2 [SEQ ID NO: 1]
- stability on storage ([1]; dry powder in a glass vial, 3 years at −20° C.): stable
- area percent of the SEQ ID NO: 1 (HPLC) ([1]; solid form, Batch 2K18005, after 3 years of storage at −20° C.): 97.87 area percent
- area percent of the SEQ ID NO: 1 (HPLC) [1, 6]: 99.09 area percent
- area percent of the impurity, RTT 1.03 [1, 6]: 0.91 area percent
- area percentage of impurity, RTT 0.99 [1, 7]: 0.09 area percent
- area percentage of impurity, RTT 1.02 [1, 7]: 1.28 area percent
- area percentage of impurity, RTT 1.03 [1, 7]: 0.41 area percent
- area percentage of impurity, RTT 1.04 [1, 7]: 0.19 area percent
- area percentage of impurity, RTT 1.05 [1, 7]: 0.15 area percent
- level of impurity at RRT 0.98 ([2]; 7 days at 40° C.): 0.4%
- level of impurity at RRT 0.98 ([2]; 54 days at 40° C.): 1.1%
- Main peak SEQ ID NO: 1 area % ([2]; 7 days/40° C.): 97.2% and 97.1%
- SEQ ID NO: 1 content ([2]; 7 days/40° C.): 5.05 mg/mL and 5.11 mg/mL
- Solution pH ([2]; 7 days/40° C.): 4.98 and 5.02
- Main peak SEQ ID NO: 1 area % ([2]; 7 days/−20° C.): 97.2%
- SEQ ID NO: 1 content ([2]; 7 days/−20° C.): 5.11 mg/mL
- Main peak SEQ ID NO: 1 area % ([2]; 14 days/40° C.): 96.2% and 94.7%
- SEQ ID NO: 1 content ([2]; 14 days/40° C.): 5.05 mg/mL and 5.01 mg/mL
- Solution pH ([2]; 14 days/40° C.): 5.01 and 5.00
- SEQ ID NO: 1 content ([2]; 14 days/−20° C.): 5.08 mg/mL
- Solution pH ([2]; 14 days/−20° C.): 4.97
- Main peak SEQ ID NO: 1 area % ([2]; 54 days/40° C.): 95.6%
- SEQ ID NO: 1 content ([2]; 54 days/40° C.): 4.99 mg/mL
- Solution pH ([2]; 54 days/40° C.): 4.96
- Main peak SEQ ID NO: 1 area % ([2]; 54 days/−20° C.): 96.9%
- Area % of concurrent analytical standard ([2]; standard run with the 7 days samples): 97.1 ± 0.4%
- Area % of concurrent analytical standard ([2]; standard run with the 14 days samples): 95.5 ± 0.5%
- Area % of concurrent analytical standard ([2]; standard run with the 54 days samples): 96.8 ± 0.8%
- solubility ([3]; pH 5, water, pH 5.0, read-out: Solubility of near saturation, Concentration): ≥ 328 mg/mL
- solubility ([3]; pH 7.4, water, pH 7.4, read-out: Solubility of near saturation, Concentration): ≥ 228 mg/mL
- solubility ([3]; pH 8.1, water, pH 8.1, read-out: Solubility of near saturation, Concentration): ≥ 250 mg/mL
- solubility ([3]; pH=5.0, read-out: solubility near saturation concentration in water): 328 mg/mL
- solubility ([3]; pH=7.4, read-out: solubility near saturation concentration in water): 228 mg/mL
- solubility ([3]; pH=8.1, read-out: solubility near saturation concentration in water): 250 mg/mL
- Purity of near saturation solution ([3]; pH 5.0): 95.6%
- Purity of near saturation solution ([3]; pH 7.4): 97.2%
- Purity of near saturation solution ([3]; pH 8.1): 96.7%
- Solution pH ([4]; 7 days/−20° C.): 4.95
- Main peak SEQ ID NO: 1 area % ([4]; 14 days/−20° C.): 95.4%
- SEQ ID NO: 1 content ([4]; 54 days/−20° C.): 5.09 mg/mL
- Solution pH ([4]; 54 days/−20° C.): 4.95
- Visual Appearance ([5]; 15.3 mg/mL solution, 40° C. and 75% RH, 1 Month): Clear, colorless liquid. Free of visible particulates.
- Visual Appearance ([5]; 15.3 mg/mL solution, 40° C. and 75% RH, 2 Month): Clear, colorless liquid. Free of visible particulates.
- Visual Appearance ([5]; 15.3 mg/mL solution, 40° C. and 75% RH, 3 Month): Clear, colorless liquid. Free of visible particulates.
- Visual Appearance ([5]; 15.3 mg/mL solution, 40° C. and 75% RH, 6 Month): Clear, colorless liquid. Free of visible particulates,
- Visual Appearance ([5]; 15.3 mg/mL solution, −20° C., 0 Month): Clear, colorless liquid. Free of visible particulates.
- Visual Appearance ([5]; 15.3 mg/mL solution, −20° C., 1 Month): Clear, colorless liquid. Free of visible particulates.
- Visual Appearance ([5]; 15.3 mg/mL solution, −20° C., 2 Month): Clear, colorless liquid. Free of visible
- Visual Appearance ([5]; 15.3 mg/mL solution, −20° C., 3 Month): Clear, colorless liquid. Free of visible particulates.
- Visual Appearance ([5]; 15.3 mg/mL solution, −20° C., 6 Month): Clear, colorless liquid. Free of visible particulates,
- Visual Appearance ([5]; 36.7 mg/mL solution, 40° C. and 75% RH, 1 Month): Clear, colorless liquid
- Visual Appearance ([5]; 36.7 mg/mL solution, 40° C. and 75% RH, 2 Month): Clear, colorless liquid
- Visual Appearance ([5]; 36.7 mg/mL solution, 40° C. and 75% RH, 3 Month): Clear, colorless liquid
- Visual Appearance ([5]; 36.7 mg/mL solution, 40° C. and 75% RH, 6 Month): Clear, colorless liquid, free
- Visual Appearance ([5]; 36.7 mg/mL solution, −20° C., 0 Month): Clear, colorless liquid.
- Visual Appearance ([5]; 36.7 mg/mL solution, −20° C., 1 Month): Clear, colorless liquid.
- Visual Appearance ([5]; 36.7 mg/mL solution, −20° C., 2 Month): Clear, colorless liquid.
- Visual Appearance ([5]; 36.7 mg/mL solution, −20° C., 3 Month): Clear, colorless liquid.
- Visual Appearance ([5]; 36.7 mg/mL solution, −20° C., 6 Month): Clear, colorless liquid, free
- Visual Appearance ([5]; 72.4 mg/mL solution, 40° C. and 75% RH, 1 Month): Clear, colorless liquid
- Visual Appearance ([5]; 72.4 mg/mL solution, 40° C. and 75% RH, 2 Month): Clear, colorless liquid
- Visual Appearance ([5]; 72.4 mg/mL solution, 40° C. and 75% RH, 3 Month): Clear, colorless liquid
- Visual Appearance ([5]; 72.4 mg/mL solution, 40° C. and 75% RH, 6 Month): Clear, slightly yellow liquid, free
- Visual Appearance ([5]; 72.4 mg/mL solution, −20° C., 0 Month): Clear, colorless liquid
- Visual Appearance ([5]; 72.4 mg/mL solution, −20° C., 1 Month): Clear, colorless liquid
- Visual Appearance ([5]; 72.4 mg/mL solution, −20° C., 2 Month): Clear, colorless liquid
- Visual Appearance ([5]; 72.4 mg/mL solution, −20° C., 3 Month): Clear, colorless liquid
- Visual Appearance ([5]; 72.4 mg/mL solution, −20° C., 6 Month): Clear, colorless liquid, free
- Visual Appearance ([5]; 81.4 mg/mL solution, 40° C. and 75% RH, 1 Month): Clear, yellow liquid
- Visual Appearance ([5]; 81.4 mg/mL solution, 40° C. and 75% RH, 3 Month): stopper Solution: Clear, yellow
- Visual Appearance ([5]; 81.4 mg/mL solution, −20° C., 1 Month): Clear, colorless liquid
- Visual Appearance ([5]; 81.4 mg/mL solution, −20° C., 2 Month): a clear colorless liquid, visibly
- Visual Appearance ([5]; 81.4 mg/mL solution, −20° C., 3 Month): rubber stopper Solution: Clear, colorless liquid,
